# Data as given in ChEMBL document CHEMBL5647694, “Novel orally bioavailable EZH1/2 dual inhibitors with greater antitumor efficacy than an EZH2 selective inhibitor” (Cancer Sci, 2017).
# Active and inactive are the calls of the source. The calls are words filed in the database; no cut-off is given here.
# How the values were obtained:
# [1] = Toxicity in Crl:CD Sprague-Dawley rat assessed as creatine kinase level in blood at 100 mg/kg, po administered daily for 14 days (reference value: 164 +/-5U/L); assay type: organism-based; conditions: in vivo, 336 h, time 14 day
# [2] = Toxicity in Crl:CD Sprague-Dawley rat assessed as eosinophil count in blood at 100 mg/kg, po administered daily for 14 days (reference value: 0.085+/-0.04 10^3/uL); assay type: organism-based; conditions: in vivo, 336 h, time 14 day
# [3] = Toxicity in Crl:CD Sprague-Dawley rat assessed as globulin level in blood at 100 mg/kg, po administered daily for 14 days (reference value: 1.6 +/-0.082 g/dL); assay type: organism-based; conditions: in vivo, 336 h, time 14 day
# [4] = AUC (0 to 24 hrs) in BALB/c mouse at 6.3 mg/kg administered as single dose; assay type: ADME, organism-based; conditions: in vivo, route po
# [5] = Toxicity in Crl:CD Sprague-Dawley rat assessed as lymphocyte count in blood at 100 mg/kg, po administered daily for 14 days (reference value: 7.37+/-1.6 10^3/uL); assay type: organism-based; conditions: in vivo, 336 h, time 14 day
# [6] = target: RAC-beta serine/threonine-protein kinase (Homo sapiens) (UniProt P31751); assay: Inhibition of N-terminal GST-tagged human AKT2 catalytic domain (120 to 481 residues) co-expressed with His-tagged PDK1 (1 to 556 residues) in baculovirus-infected Sf21 cells using Crosstide as substrate at 1 uM in presence of ATP by Mobility shift assay
# [7] = tested on: KARPAS-422; assay: Antitumor activity against human KARPAS-422 cells xenografted in CB17/Icr-Prkdcscid/CrlCrlj mouse assessed as inhibition of tumor growth at 50 mg/kg, po BID for 14 days and measured after cessation of drug treatment; assay type: functional, organism-based; conditions: time 14.0 day
# [8] = tested on: LS-513; assay: Antitumor activity against human LS-513 cells assessed as cell growth inhibition treated for 10 to 15 days; assay type: functional; conditions: time 10-15 day
# [9] = tested on: HCC1569; assay: Antitumor activity against human HCC1569 cells assessed as cell growth inhibition treated for 10 to 15 days; assay type: functional; conditions: time 10-15 day
# [10] = target: Angiopoietin-1 receptor (Homo sapiens) (UniProt Q02763); assay: Inhibition of N-terminal GST-tagged human TIE2 cytoplasmic domain (771 to 1124 residues) expressed in baculovirus-infected Sf21 cells using Blk/Lyntide as substrate at 1 uM in presence of ATP by Mobility shift assay
# [11] = tested on: NCI-H522; assay: Antitumor activity against human NCI-H522 cells assessed as cell growth inhibition treated for 10 to 15 days; assay type: functional; conditions: time 10-15 day
# [12] = tested on: ST486; assay: Antitumor activity against human ST486 cells assessed as cell growth inhibition treated for 10 to 15 days; assay type: functional; conditions: time 10-15 day
# [13] = tested on: SW48; assay: Antitumor activity against human SW48 cells assessed as cell growth inhibition treated for 10 to 15 days; assay type: functional; conditions: time 10-15 day
# [14] = tested on: NCI-H1694; assay: Antitumor activity against human NCI-H1694 cells assessed as cell growth inhibition treated for 10 to 15 days; assay type: functional; conditions: time 10-15 day
# [15] = tested on: Granta-519; assay: Antitumor activity against human Granta-519 cells assessed as cell growth inhibition treated for 10 to 15 days; assay type: functional; conditions: time 10-15 day
# [16] = Antitumor activity against human CADO-ES1 cells assessed as cell growth inhibition treated for 10 to 15 days; assay type: functional; conditions: time 10-15 day
# [17] = tested on: OAW-42; assay: Antitumor activity against human OAW-42 cells assessed as cell growth inhibition treated for 10 to 15 days; assay type: functional; conditions: time 10-15 day
# [18] = target: Histone-lysine N-methyltransferase 2C (Homo sapiens, UniProt Q8NEZ4); assay: Inhibition of human MLL3 using Core Histone and [3H]SAM as substrate incubated for 30 mins to 1 hr by HotSpot kinase assay
# [19] = tested on: SK-OV-3; assay: Antitumor activity against human SK-OV-3 cells assessed as cell growth inhibition treated for 10 to 15 days; assay type: functional; conditions: time 10-15 day
# [20] = tested on: ARH-77; assay: Antitumor activity against human ARH-77 cells assessed as cell growth inhibition treated for 10 to 15 days; assay type: functional; conditions: time 10-15 day
# [21] = tested on: REH; assay: Antitumor activity against human REH cells assessed as cell growth inhibition treated for 10 to 15 days; assay type: functional; conditions: time 10-15 day
# [22] = target: Serine/threonine-protein kinase WNK1 (Homo sapiens) (UniProt Q9H4A3); assay: Inhibition of N-terminal GST-fused human WNK1 catalytic domain (1 to 491 residues) expressed in baculovirus expression system using SPAKtide as substrate at 1 uM in presence of ATP by Mobility shift assay
# [23] = tested on: MDA-MB-175-VII; assay: Antitumor activity against human MDA-MB-175-VII cells assessed as cell growth inhibition treated for 10 to 15 days; assay type: functional; conditions: time 10-15 day
# [24] = tested on: DB; assay: Antitumor activity against human DB cells assessed as cell growth inhibition treated for 10 to 15 days; assay type: functional; conditions: time 10-15 day
# [25] = tested on: Toledo; assay: Antitumor activity against human Toledo cells assessed as cell growth inhibition treated for 10 to 15 days; assay type: functional; conditions: time 10-15 day
# [26] = tested on: RMG-I; assay: Antitumor activity against human RMG-I cells assessed as cell growth inhibition treated for 10 to 15 days; assay type: functional; conditions: time 10-15 day
# [27] = tested on: JeKo-1; assay: Antitumor activity against human JeKo-1 cells assessed as cell growth inhibition treated for 10 to 15 days; assay type: functional; conditions: time 10-15 day
# [28] = target: N-lysine methyltransferase KMT5A (Homo sapiens, UniProt Q9NQR1); assay: Inhibition of human SET8 using Nucleosomes and [3H]SAM as substrate incubated for 30 mins to 1 hr by HotSpot kinase assay
# [29] = tested on: KCL-22; assay: Antitumor activity against human KCL-22 cells assessed as cell growth inhibition treated for 10 to 15 days; assay type: functional; conditions: time 10-15 day
# [30] = target: DNA (cytosine-5)-methyltransferase 3B (Homo sapiens, UniProt Q9UBC3); assay: Inhibition of human DNMT3b using lambda DNA and [3H]SAM as substrate incubated for 30 mins to 1 hr by HotSpot kinase assay
# [31] = tested on: KMS-11; assay: Antitumor activity against human KMS-11 cells assessed as cell growth inhibition treated for 10 to 15 days; assay type: functional; conditions: time 10-15 day
# [32] = tested on: MLMA; assay: Antitumor activity against human MLMA cells assessed as cell growth inhibition treated for 10 to 15 days; assay type: functional; conditions: time 10-15 day
# [33] = tested on: EB2; assay: Antitumor activity against human EB2 cells assessed as cell growth inhibition treated for 10 to 15 days; assay type: functional; conditions: time 10-15 day
# [34] = tested on: SR; assay: Antitumor activity against human SR cells assessed as cell growth inhibition treated for 10 to 15 days; assay type: functional; conditions: time 10-15 day
# [35] = Antitumor activity against human MDA-PCa-2b cells assessed as cell growth inhibition treated for 10 to 15 days; assay type: functional; conditions: time 10-15 day
# [36] = tested on: Raji; assay: Antitumor activity against human Raji cells assessed as cell growth inhibition treated for 10 to 15 days; assay type: functional; conditions: time 10-15 day
# [37] = tested on: MDA-MB-361; assay: Antitumor activity against human MDA-MB-361 cells assessed as cell growth inhibition treated for 10 to 15 days; assay type: functional; conditions: time 10-15 day
# [38] = tested on: OCI-Ly7; assay: Antitumor activity against human OCILY7 cells assessed as cell growth inhibition treated for 10 to 15 days; assay type: functional; conditions: time 10-15 day
# [39] = tested on: UACC-812; assay: Antitumor activity against human UACC-812 cells assessed as cell growth inhibition treated for 10 to 15 days; assay type: functional; conditions: time 10-15 day
# [40] = tested on: HH; assay: Antitumor activity against human HH cells assessed as cell growth inhibition treated for 10 to 15 days; assay type: functional; conditions: time 10-15 day
# [41] = tested on: LoVo; assay: Antitumor activity against human LoVo cells assessed as cell growth inhibition treated for 10 to 15 days; assay type: functional; conditions: time 10-15 day
# Sequence of N-lysine methyltransferase KMT5A (Q9NQR1 whole entry): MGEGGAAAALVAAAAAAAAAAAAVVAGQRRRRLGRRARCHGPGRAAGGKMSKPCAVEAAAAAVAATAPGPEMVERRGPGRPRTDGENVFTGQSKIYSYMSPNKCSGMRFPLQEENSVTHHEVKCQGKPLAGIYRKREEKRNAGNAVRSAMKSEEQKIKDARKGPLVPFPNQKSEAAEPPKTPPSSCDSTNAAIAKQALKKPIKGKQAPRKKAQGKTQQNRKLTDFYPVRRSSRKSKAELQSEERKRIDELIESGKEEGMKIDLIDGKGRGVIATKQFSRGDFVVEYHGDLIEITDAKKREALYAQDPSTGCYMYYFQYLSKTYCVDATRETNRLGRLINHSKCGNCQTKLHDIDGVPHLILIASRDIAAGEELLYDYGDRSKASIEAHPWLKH
# Sequence of RAC-beta serine/threonine-protein kinase (Homo sapiens) (P31751 whole entry, the tested form may be a part): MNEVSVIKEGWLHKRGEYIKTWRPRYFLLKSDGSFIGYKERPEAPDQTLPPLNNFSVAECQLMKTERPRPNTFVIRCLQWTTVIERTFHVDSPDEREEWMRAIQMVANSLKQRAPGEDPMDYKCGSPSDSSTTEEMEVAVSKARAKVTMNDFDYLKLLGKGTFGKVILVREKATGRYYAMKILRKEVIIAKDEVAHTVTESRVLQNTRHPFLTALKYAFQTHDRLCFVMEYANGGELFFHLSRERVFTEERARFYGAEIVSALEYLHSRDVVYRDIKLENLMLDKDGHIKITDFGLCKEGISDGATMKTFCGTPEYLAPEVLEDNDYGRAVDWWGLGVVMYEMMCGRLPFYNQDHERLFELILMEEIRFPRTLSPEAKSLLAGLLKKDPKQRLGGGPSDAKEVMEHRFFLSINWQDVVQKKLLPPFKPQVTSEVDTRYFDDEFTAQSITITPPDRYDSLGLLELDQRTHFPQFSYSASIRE
# Sequence of Serine/threonine-protein kinase WNK1 (Homo sapiens) (Q9H4A3 whole entry, looked up, the tested form may be a part): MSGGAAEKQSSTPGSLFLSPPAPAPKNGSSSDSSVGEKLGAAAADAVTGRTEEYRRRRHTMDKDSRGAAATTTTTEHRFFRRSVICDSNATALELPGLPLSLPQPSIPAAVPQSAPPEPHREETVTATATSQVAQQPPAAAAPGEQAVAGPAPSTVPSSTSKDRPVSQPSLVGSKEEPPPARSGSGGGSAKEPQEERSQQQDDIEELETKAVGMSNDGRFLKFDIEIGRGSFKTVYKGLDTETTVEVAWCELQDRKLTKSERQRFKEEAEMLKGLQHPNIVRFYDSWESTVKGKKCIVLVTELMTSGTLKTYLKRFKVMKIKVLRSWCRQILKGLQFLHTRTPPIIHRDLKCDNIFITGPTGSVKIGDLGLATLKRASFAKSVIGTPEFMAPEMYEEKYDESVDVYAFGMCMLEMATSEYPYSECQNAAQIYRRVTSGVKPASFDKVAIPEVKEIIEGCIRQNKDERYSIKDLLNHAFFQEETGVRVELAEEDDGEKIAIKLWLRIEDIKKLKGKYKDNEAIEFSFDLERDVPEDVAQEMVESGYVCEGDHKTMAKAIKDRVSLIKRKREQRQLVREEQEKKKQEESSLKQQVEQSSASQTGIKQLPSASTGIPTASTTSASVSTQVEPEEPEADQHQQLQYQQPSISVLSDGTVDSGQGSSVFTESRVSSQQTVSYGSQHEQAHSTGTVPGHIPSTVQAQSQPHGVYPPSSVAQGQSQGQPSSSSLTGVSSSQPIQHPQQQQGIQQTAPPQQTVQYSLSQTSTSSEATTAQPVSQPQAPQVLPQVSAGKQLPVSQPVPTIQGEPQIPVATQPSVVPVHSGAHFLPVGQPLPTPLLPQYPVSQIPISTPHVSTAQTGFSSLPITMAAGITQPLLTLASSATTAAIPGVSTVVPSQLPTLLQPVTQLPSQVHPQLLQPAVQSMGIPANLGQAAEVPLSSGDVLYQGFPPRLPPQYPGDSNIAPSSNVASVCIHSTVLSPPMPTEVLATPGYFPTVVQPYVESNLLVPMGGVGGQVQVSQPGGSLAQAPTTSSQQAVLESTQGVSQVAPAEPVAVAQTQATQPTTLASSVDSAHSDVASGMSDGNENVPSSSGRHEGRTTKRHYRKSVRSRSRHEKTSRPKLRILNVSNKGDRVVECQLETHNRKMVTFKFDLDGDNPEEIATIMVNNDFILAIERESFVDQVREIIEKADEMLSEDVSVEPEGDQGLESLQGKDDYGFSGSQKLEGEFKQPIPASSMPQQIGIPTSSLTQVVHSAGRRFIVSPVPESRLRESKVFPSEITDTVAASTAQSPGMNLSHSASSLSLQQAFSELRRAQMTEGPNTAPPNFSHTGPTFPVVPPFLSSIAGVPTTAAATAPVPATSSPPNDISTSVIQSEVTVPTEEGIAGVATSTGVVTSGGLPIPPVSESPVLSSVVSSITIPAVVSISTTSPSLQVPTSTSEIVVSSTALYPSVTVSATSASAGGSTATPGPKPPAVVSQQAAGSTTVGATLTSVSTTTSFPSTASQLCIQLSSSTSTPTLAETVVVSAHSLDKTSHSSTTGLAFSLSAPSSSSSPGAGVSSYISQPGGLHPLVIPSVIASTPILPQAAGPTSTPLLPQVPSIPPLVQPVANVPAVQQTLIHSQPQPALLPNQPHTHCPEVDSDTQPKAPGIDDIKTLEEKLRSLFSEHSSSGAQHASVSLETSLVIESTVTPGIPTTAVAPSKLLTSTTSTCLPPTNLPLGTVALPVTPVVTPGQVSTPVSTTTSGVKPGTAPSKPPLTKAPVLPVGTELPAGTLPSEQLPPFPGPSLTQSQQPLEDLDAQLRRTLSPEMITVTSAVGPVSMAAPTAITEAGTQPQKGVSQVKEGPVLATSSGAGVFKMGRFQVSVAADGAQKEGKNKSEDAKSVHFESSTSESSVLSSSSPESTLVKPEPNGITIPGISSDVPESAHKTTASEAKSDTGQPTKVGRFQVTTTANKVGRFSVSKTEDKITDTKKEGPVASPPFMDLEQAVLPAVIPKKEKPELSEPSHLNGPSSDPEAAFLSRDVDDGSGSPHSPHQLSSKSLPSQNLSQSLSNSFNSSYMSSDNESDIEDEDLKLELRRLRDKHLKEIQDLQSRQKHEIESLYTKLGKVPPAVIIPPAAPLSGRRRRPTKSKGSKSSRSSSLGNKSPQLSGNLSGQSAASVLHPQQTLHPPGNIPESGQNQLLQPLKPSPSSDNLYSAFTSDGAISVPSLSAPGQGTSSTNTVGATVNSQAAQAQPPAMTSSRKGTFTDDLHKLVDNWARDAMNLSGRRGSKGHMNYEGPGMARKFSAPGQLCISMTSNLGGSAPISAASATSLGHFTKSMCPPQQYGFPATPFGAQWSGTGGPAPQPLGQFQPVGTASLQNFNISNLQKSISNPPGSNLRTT
# Sequence of Angiopoietin-1 receptor (Homo sapiens) (Q02763 whole entry, the tested form may be a part): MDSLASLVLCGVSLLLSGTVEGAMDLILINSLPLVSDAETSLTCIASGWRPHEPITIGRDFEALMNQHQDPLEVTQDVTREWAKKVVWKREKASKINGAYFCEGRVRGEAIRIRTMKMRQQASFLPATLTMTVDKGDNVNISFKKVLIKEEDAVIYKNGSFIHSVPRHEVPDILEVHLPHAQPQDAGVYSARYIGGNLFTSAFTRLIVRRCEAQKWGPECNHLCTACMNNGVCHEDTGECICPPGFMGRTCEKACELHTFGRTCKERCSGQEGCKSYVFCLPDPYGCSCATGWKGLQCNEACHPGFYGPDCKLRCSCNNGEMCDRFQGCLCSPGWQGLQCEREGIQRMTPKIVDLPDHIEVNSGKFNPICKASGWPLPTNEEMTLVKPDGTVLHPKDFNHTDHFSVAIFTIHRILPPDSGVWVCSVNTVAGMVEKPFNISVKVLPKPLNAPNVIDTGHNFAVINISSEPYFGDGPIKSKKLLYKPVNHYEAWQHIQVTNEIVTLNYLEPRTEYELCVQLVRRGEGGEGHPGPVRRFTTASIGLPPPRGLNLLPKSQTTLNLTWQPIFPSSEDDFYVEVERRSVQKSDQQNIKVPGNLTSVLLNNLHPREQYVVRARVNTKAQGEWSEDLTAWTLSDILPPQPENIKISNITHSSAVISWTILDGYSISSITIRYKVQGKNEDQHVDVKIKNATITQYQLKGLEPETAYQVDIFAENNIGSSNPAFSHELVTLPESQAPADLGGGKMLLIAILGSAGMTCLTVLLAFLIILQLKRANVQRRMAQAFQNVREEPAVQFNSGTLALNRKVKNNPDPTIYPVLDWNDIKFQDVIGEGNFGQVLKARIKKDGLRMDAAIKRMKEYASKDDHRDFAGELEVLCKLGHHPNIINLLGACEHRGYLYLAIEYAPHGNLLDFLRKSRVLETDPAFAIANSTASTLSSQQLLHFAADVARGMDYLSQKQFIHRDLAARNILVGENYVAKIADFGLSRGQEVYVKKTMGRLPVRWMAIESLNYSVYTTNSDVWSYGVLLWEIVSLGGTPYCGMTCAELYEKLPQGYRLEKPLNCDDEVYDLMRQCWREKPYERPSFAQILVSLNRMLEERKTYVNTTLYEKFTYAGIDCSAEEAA
structure (smiles),measurement,setting,value
Cc1cc(C)c(CNC(=O)c2cc(Br)c3c(c2C)O[C@@](C)([C@H]2CC[C@H](N(C)C)CC2)O3)c(=O)[nH]1,Activity,[1],186 U/L
same,Activity,[2],0.168 10^3 /uL
same,Activity,[3],1.55 g/dL
same,AUC(0-t),[4],1.6 µM·h
same,Activity,[5],3.67 10^3 /uL
same,inhibition,[6],-9.5%
same,Activity,[7],Active
Cc1cc(C)c(CNC(=O)c2cc(Cl)c3c(c2C)O[C@@](C)([C@H]2CC[C@H](N(C)C)CC2)O3)c(=O)[nH]1 [VALEMETOSTAT],GI50,[8],> 1000 nM
same,GI50,[9],> 1000 nM
same,inhibition,[10],-7.6%
same,GI50,[11],460 nM
same,GI50,[12],> 1000 nM
same,GI50,[13],> 1000 nM
same,GI50,[14],> 1000 nM
same,GI50,[15],> 1000 nM
same,GI50,[16],952 nM
same,GI50,[17],> 1000 nM
same,IC50,[18],100000 nM
same,GI50,[19],> 1000 nM
same,GI50,[20],> 1000 nM
same,GI50,[21],> 1000 nM
same,inhibition,[22],3.4%
same,GI50,[23],43.9 nM
same,GI50,[24],4.11 nM
same,GI50,[25],> 1000 nM
same,GI50,[26],> 1000 nM
same,GI50,[27],92.2 nM
same,IC50,[28],100000 nM
same,GI50,[29],138 nM
same,IC50,[30],100000 nM
same,GI50,[31],10.3 nM
same,GI50,[32],273 nM
same,GI50,[33],> 1000 nM
same,GI50,[34],388 nM
same,GI50,[35],12.5 nM
same,GI50,[36],11.2 nM
same,GI50,[37],109 nM
same,GI50,[38],59.2 nM
same,GI50,[39],> 1000 nM
same,GI50,[40],7.18 nM
same,GI50,[41],150 nM
